Experimental data published in patent publication US11357871B2, “Challenge test for diagnosing subtypes of ASD” (Stalicla S.A., priority 2017, dated 2022).
Where two headings read alike, the source gives them in different places.

What was measured:
[1] = tested on: lymphoblastoid cell lines of ASD phenotype 1 patients; test: Biolog Phenotype Mammalian MicroArray (PM-M) NADH/energy production, phenotype 1 cells; format: cell-based, human; conditions: cells exposed to the substance; AUC (Figure 1) and endpoint absorbance (Table 1)
Protocol: From all subjects, blood samples were collected and lymphoblastoid cell lines generated. Briefly, tubes containing anticoagulant citrate dextrose (ACD) were used to collect blood samples via venipuncture, in order to ensure that the blood cells remained metabolically active. The tubes were kept at room temperature and processed within 24 hours.
Cell lines were obtained by immortalization of lymphocytes from blood samples using Epstein-Barr virus.
Energy production of cells was measured using commercially available Phenotype Mammalian MicroArrays (PM-Ms, Biolog, Hayward, Calif., USA).
The compound in each well was designed to be used by the cells, either as the sole energy source or as the metabolic effector influencing the utilization of an energy source (α-D-glucose) added in the cell suspension. […] Before plating, cell viability and number were assessed utilizing a BioRad cell counter and a trypan blue dye. The concentration of live cells required for plating was 4×10^5 cells/mL, corresponding to 20,000 cells per well in a volume of 50 μL. […] Cells were incubated for 48 h at 37° C. in 5% CO2, using the modified Biolog IF-M1 medium.
The Biolog IF-M1 medium was modified for plates PM-M1 to M4 by adding the following to 100 mL of Biolog IF-M1: 1.1 mL of 100× penicillin/streptomycin solution, 0.16 mL of 200 mM glutamine (final concentration 0.3 mM), and 5.3 mL of Fetal Bovine Serum (FBS, final concentration 5%). For plates PM-M5 to M8, 5.5 mM α-D-glucose will be added in place of FBS.
During the 48-hour incubation, the only energy source the cells had was the chemical in the well. After this first incubation, Biolog Redox Dye Mix MB was added (10 μL/well) and the plates were incubated under the same conditions for an additional 24 hours. As the cells metabolized the energy source, tetrazolium dye in the media was reduced, producing a purple color according to the amount of NADH generated.
For the last 24 hours of the experiment, the plates were incubated in the Omnilog system, which collects optical density readings every 15 minutes, generating 96 data-points for each well. The system also elaborated the kinetic curve for the metabolic reaction in each well and extrapolated parameters such as slope, highest point, endpoint, area under the curve (AUC), and lag.
At the end of the 24-hour incubation, the plates were analyzed utilizing a microplate reader with readings at 590 and 750 nm. The first value (A590) indicated the highest absorbance peak of the redox dye and the second value (A750) gave a measure of the background noise. The relative absorbance (A590-750) was calculated per well.

[2] = tested on: ASD phenotype 2 patients; conditions: wording of CGI-I rating
Protocol: (§1) The effects of sulforaphane containing Broccoli sprout extract was observed and quantified in 7 individuals suffering from ASD and previously classified as either phenotype 1 or phenotype 2 patients.
We describe a procedure consisting of an evaluation of patients with ASD prior and after administration of broccoli sprout extract. The extract was prepared from selected broccoli seeds known to have high yield of sulforaphane which were surface-disinfected and grown (sprouted) for 3 days in a commercial sprouting facility under controlled light and moisture conditions. A boiling water extract was prepared, filtered, cooled, and treated with the enzyme myrosinase (from daikon sprouts) to convert precursor glucosinolates to isothiocyanates. Behavioral evaluation of patients was performed prior, during and after administration of sulforaphane-containing broccoli sprout extract. Baseline evaluation of patients was performed using standard clinical endpoints (ADI-R subscales ADI-SI, ADI-C and ADI-RI).
Challenge regimen consisted of the administration of a Broccoli Sprout Extract dose corresponding to a total daily dosage of 4 μmol/kg of sulforaphane, administered in 3 doses over the course of the day. […]

[3] = tested on: ASD phenotype 1 patients; test: Nrf2-activator challenge test, ASD phenotype 1 patients (ADI-R, CGI-S, CGI-I); format: in vivo, human; conditions: selected patient cohort
Protocol: as §1
The extract was prepared from selected broccoli seeds known to have high yield of sulforaphane which were surface-disinfected and grown (sprouted) for 3 days in a commercial sprouting facility under controlled light and moisture conditions.

| Compound | NADH production of ASD phenotype 1 cells compared to TDs and non-phenotype 1 cells [1] | also measured |
| --- | --- | --- |
| FGF-1(aFGF): growth factor that selectively targets the PI3K-Akt-mTOR pathway | significantly reduced production of NADH | – |
| IGF-I: insulin-like growth factor 1 | no significant differences | – |
| hGH(Somatotropin): growth factor that selectively targets the PI3K-Akt-mTOR pathway | significantly reduced production of NADH | – |
| PDGF-AB: platelet-derived growth factor AB | no significant differences | – |
| IL-1beta: Th1 cytokine | significantly lower levels of NADH | – |
| C[S@@+]([O-])CCCCN=C=S [sulforaphane, 1-isothiocyanato-4R-(methylsulfinyl)butane] | – | Clinical significance ([2]; Example 4 Patient 1 (phenotype 2)): Very much improved; Clinical significance ([2]; Example 4 Patient 2 (phenotype 2)): Very much improved; reduction of disease severity as measured through the ADI-R, SRS and GGI-S/CGI-I [3]: not effective in reducing disease severity |
| IL-6: Th1 cytokine | significantly lower levels of NADH | – |
